{"source": "ChEMBL document CHEMBL4616595", "about": "“Targeted suppression of metastasis regulatory transcription factor SOX2 in various cancer cell lines using a sequence-specific designer pyrrole-imidazole polyamide” (Bioorg Med Chem, 2020)", "test_system": "SW-620", "assay": "Antiinvasive activity in human SW620 cells assessed as reduction in cell invasion at 2 uM incubated for 72 hrs by crystal violet staining based assay relative to untreated control", "type": "functional"}
{"smiles": "C=C1[C@@H](C)[C@H]2[C@H](Cc3ccccc3)NC(=O)[C@]23[C@H](OC(C)=O)/C=C/[C@@](C)(O)C(=O)[C@@H](C)C/C=C/[C@H]3[C@@H]1O", "note": "[CYTOCHALASIN D]", "values": [{"measurement": "fold change (FC)", "value": 4}]}
